Measured values as given in ChEMBL document CHEMBL1128153, “Acetylcholinesterase inhibition by alkaloids of the ant's venom Monomorium minutum” (Bioorg Med Chem Lett, 1995).

Columns and labels:
Acetylcholinesterase = Acetylcholinesterase (Electrophorus electricus, UniProt O42275)
Description: Tested for in vitro inhibition of acetylcholinesterase

[1] = Partition coefficient (logP); type: physicochemical; conditions: octanol/water
ant = experiment: Evaluated for the amount of compound present in ant's venom Monomorium minutum.; type: functional

Chain of Acetylcholinesterase (O42275 whole entry): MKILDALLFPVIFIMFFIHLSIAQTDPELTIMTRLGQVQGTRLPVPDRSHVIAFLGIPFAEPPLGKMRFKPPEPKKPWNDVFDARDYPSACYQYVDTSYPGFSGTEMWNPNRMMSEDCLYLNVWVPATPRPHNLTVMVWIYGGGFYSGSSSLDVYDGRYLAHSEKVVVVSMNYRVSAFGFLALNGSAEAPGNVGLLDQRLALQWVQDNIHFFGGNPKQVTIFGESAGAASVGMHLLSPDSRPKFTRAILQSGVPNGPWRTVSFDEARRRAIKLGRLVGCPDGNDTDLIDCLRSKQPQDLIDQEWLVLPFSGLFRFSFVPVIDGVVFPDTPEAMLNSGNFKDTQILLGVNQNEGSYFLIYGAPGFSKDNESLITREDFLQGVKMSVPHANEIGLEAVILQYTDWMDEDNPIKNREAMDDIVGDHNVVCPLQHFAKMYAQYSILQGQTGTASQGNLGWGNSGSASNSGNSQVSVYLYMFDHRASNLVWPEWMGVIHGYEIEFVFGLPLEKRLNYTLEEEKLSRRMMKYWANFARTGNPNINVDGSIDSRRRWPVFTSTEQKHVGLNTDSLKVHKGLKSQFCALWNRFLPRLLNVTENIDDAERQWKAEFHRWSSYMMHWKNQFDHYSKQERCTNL

Row | Structure (SMILES) | Ki (Acetylcholinesterase) [nM] | logP [1] | Venom (ant) [%]
1 | C=CCCCCCCCC1CCC(CCCCC=C)N1 (stereo not drawn) | 2500 | 7.32 | 29.8
2 | C=CCCCCC1=NC(CCCCCCCCC)CC1 (stereo not drawn) | 5000 | 8.39 | 4.4
3 | C=CCCCCC1CCC(CCCCCCCCC)N1 (stereo not drawn) | 1500 | 7.68 | 58.7
4 | C=CCCCCCCCC1=NC(CCCCC=C)CC1 (stereo not drawn) | 13000 | 8.02 | 0.2
5 | CN(C)C(=O)Oc1cccc([N+](C)(C)C)c1 [NEOSTIGMINE BROMIDE] | 1000 |  | 
